From patent US20230159532A1, “PARATHYROID HORMONE (PTH) RECEPTOR ANTAGONISTS AND USES THEREOF” (Crinetics Pharmaceuticals, Inc., priority 2021, published 2023)

These compounds were tested against T1, human PTHR1 receptor (Homo sapiens, UniProt Q03431) (assay: Competitive antagonist binding assay for hPTH-R1 (radioactive competition binding, SPA beads)). Details: human PTHR1 membranes, [125I]-[Nle8,18,Tyr34]-PTH(1-34) 0.2 nM, 90 minutes at room temperature; read-out: hPTHR1 Ki.
T1 construct: purchased Eurofins HTS030M
T1 sequence (Q03431 27-593): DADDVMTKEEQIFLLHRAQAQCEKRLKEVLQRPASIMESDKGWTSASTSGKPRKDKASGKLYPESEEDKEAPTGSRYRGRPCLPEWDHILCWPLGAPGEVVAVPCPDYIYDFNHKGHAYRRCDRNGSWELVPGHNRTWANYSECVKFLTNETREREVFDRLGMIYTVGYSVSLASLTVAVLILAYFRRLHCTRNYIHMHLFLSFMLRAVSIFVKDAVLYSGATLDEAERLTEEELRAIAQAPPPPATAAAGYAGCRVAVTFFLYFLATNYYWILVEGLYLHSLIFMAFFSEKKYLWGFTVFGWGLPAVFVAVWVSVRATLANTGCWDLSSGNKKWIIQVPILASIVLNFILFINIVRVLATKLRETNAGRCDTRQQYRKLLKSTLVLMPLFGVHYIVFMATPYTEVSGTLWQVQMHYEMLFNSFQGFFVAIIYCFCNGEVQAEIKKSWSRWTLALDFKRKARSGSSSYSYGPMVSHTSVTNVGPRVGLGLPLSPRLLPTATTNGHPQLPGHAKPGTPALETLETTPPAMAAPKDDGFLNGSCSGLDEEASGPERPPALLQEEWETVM
Procedure, shortened: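 Human PTHR1 membranes on SPA beads incubated 90 min at room temperature with compound (typically 0-10,000 nM final) and 0.2 nM [125I]-[Nle8,18,Tyr34]-PTH(1-34) in HEPES buffer with MgCl2, CaCl2, BSA, Triton X-100 and protease inhibitors, pH 7.4. Scintillation signal read; Ki values derived.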

SMILES	Ki
CCN1C(=O)N(c2c(F)cc(NCCNC3CCOCC3)cc2F)c2cc(Cl)ccc2-c2cccnc21 [1-4, 13-chloro-10-[2,6-difluoro-4-({2-[(oxan-4-yl)amino]ethyl}amino)phenyl]-8-ethyl-6,8,10-triazatricyclo[9.4.0.0^2,7]pentadeca-1(11),2(7),3,5,12,14-hexaen-9-one]	< 100 nM
CNCCNc1cc(F)c(N2C(=O)N(C)c3ncc(Cl)cc3-c3ccc(Cl)cc32)c(F)c1 [1-30, 4,13-dichloro-10-(2,6-difluoro-4-{[2-(methylamino)ethyl]amino}phenyl)-8-methyl-6,8,10-triazatricyclo[9.4.0.0^2,7]pentadeca-1(11),2(7),3,5,12,14-hexaen-9-one]	< 100 nM
CCN1C(=O)N(c2c(F)cc(NCCNC)cc2F)c2cc(Cl)cc(Cl)c2-c2cc(F)cnc21 [1-38, 13,15-dichloro-10-(2,6-difluoro-4-{[2-(methylamino)ethyl]amino}phenyl)-8-ethyl-4-fluoro-6,8,10-triazatricyclo[9.4.0.0^2,7]pentadeca-1(11),2(7),3,5,12,14-hexaen-9-one]	< 100 nM
CC(C)N1C(=O)N(c2c(F)cc(NCCNCCO)cc2F)c2cc(Cl)ccc2-c2cc(Cl)cnc21 [1-47, 4,13-dichloro-10-[2,6-difluoro-4-({2-[(2-hydroxyethyl)amino]ethyl}amino)phenyl]-8-(propan-2-yl)-6,8,10-triazatricyclo[9.4.0.0^2,7]pentadeca-1(11),2(7),3,5,12,14-hexaen-9-one]	< 100 nM
CCN1C(=O)N(c2c(F)cc(NCCNC)cc2F)c2cc(Cl)ccc2-c2cc(C)cnc21 [1-18, 13-chloro-10-(2,6-difluoro-4-{[2-(methylamino)ethyl]amino}phenyl)-8-ethyl-4-methyl-6,8,10-triazatricyclo[9.4.0.0^2,7]pentadeca-1(11),2(7),3,5,12,14-hexaen-9-one]	< 100 nM
CCN1C(=O)N(c2c(F)cc(NCCNCCO)cc2F)c2cc(C#N)cc(C)c2-c2cc(F)cnc21 [1-63, 10-[2,6-difluoro-4-({2-[(2-hydroxyethyl)amino]ethyl}amino)phenyl]-8-ethyl-4-fluoro-15-methyl-9-oxo-6,8,10-triazatricyclo[9.4.0.0^2,7]pentadeca-1(11),2(7),3,5,12,14-hexaene-13-carbonitrile]	< 100 nM
CCN1C(=O)N(c2c(F)cc(NCC(=O)O)cc2F)c2cc(Cl)ccc2-c2cc(Cl)cnc21 [1-41, 2-[(4-{4,13-dichloro-8-ethyl-9-oxo-6,8,10-triazatricyclo[9.4.0.0^2,7]pentadeca-1(11),2(7),3,5,12,14-hexaen-10-yl}-3,5-difluorophenyl)amino]acetic acid]	> 10000 nM
CCN1C(=O)N(c2c(F)cc(NCCNC)cc2F)c2cc(C#N)cc(C)c2-c2cc(F)cnc21 [1-62, 10-(2,6-difluoro-4-{[2-(methylamino)ethyl]amino}phenyl)-8-ethyl-4-fluoro-15-methyl-9-oxo-6,8,10-triazatricyclo[9.4.0.0^2,7]pentadeca-1(11),2(7),3,5,12,14-hexaene-13-carbonitrile]	< 100 nM
CCN1C(=O)N(c2c(F)cc(N3CC[C@@H](N)C3)cc2F)c2cc(Cl)cc(C)c2-c2cc(F)cnc21 [1-65, 10-{4-[(3R)-3-aminopyrrolidin-1-yl]-2,6-difluorophenyl}-13-chloro-8-ethyl-4-fluoro-15-methyl-6,8,10-triazatricyclo[9.4.0.0^2,7]pentadeca-1(11),2(7),3,5,12,14-hexaen-9-one]	< 100 nM
CCN1C(=O)N(c2c(F)cc(NCCNCCO)cc2F)c2cc(Cl)cc(F)c2-c2cc(Cl)cnc21 [1-60, 4,13-dichloro-10-[2,6-difluoro-4-({2-[(2-hydroxyethyl)amino]ethyl}amino)phenyl]-8-ethyl-15-fluoro-6,8,10-triazatricyclo[9.4.0.0^2,7]pentadeca-1(11),2(7),3,5,12,14-hexaen-9-one]	< 100 nM

Continued, values first:

Ki	SMILES
< 100 nM	CCN1C(=O)N(c2c(F)cc(NCCNC)cc2F)c2cc(C#N)ccc2-c2cc(F)cnc21 [1-81, 10-(2,6-difluoro-4-{[2-(methylamino)ethyl]amino}phenyl)-8-ethyl-4-fluoro-9-oxo-6,8,10-triazatricyclo[9.4.0.0^2,7]pentadeca-1(11),2(7),3,5,12,14-hexaene-13-carbonitrile]
< 100 nM	CCN1C(=O)N(c2c(F)cc(NCCN[C@@H]3CC[C@H]3O)cc2F)c2cc(C#N)ccc2-c2cc(C(F)(F)F)cnc21 [1-196, 10-{2,6-difluoro-4-[(2-{[(1R,2R)-2-hydroxycyclobutyl]amino}ethyl)amino]phenyl}-8-ethyl-9-oxo-4-(trifluoromethyl)-6,8,10-triazatricyclo[9.4.0.0^2,7]pentadeca-1(11),2(7),3,5,12,14-hexaene-13-carbonitrile]
< 100 nM	CNCCNc1cc(F)c(N2C(=O)N(C(C)C)c3ncc(F)cc3-c3c(F)cc(Cl)cc32)c(F)c1 [1-113, 13-chloro-10-(2,6-difluoro-4-{[2-(methylamino)ethyl]amino}phenyl)-4,15-difluoro-8-(propan-2-yl)-6,8,10-triazatricyclo[9.4.0.0^2,7]pentadeca-1(11),2(7),3,5,12,14-hexaen-9-one]
< 100 nM	CCN1C(=O)N(c2c(F)cc(NCCN[C@H](CO)C(=O)O)cc2F)c2cc(C#N)ccc2-c2cc(Cl)cnc21 [1-220, (2R)-2-({2-[(4-{4-chloro-13-cyano-8-ethyl-9-oxo-6,8,10-triazatricyclo[9.4.0.0^2,7]pentadeca-1(11),2(7),3,5,12,14-hexaen-10-yl}-3,5-difluorophenyl)amino]ethyl}amino)-3-hydroxypropanoic acid]
100 to 1000 nM	CCN1C(=O)N(c2c(F)cc(NCC3(CO)CNC3)cc2F)c2cc(C#N)ccc2-c2cc(Cl)cnc21 [1-158, 4-chloro-10-[2,6-difluoro-4-({[3-(hydroxymethyl)azetidin-3-yl]methyl}amino)phenyl]-8-ethyl-9-oxo-6,8,10-triazatricyclo[9.4.0.0^2,7]pentadeca-1(11),2(7),3,5,12,14-hexaene-13-carbonitrile]
< 100 nM	CCN1C(=O)N(c2c(F)cc(NCCNC)cc2F)c2cc(Cl)cc(OC)c2-c2cc(F)cnc21 [1-87, 13-chloro-10-(2,6-difluoro-4-{[2-(methylamino)ethyl]amino}phenyl)-8-ethyl-4-fluoro-15-methoxy-6,8,10-triazatricyclo[9.4.0.0^2,7]pentadeca-1(11),2(7),3,5,12,14-hexaen-9-one]
< 100 nM	CCN1C(=O)N(c2c(F)cc(NCCNC)cc2F)c2cc(C#N)ccc2-c2cc(C(F)(F)F)cnc21 [1-97, 10-(2,6-difluoro-4-{[2-(methylamino)ethyl]amino}phenyl)-8-ethyl-9-oxo-4-(trifluoromethyl)-6,8,10-triazatricyclo[9.4.0.0^2,7]pentadeca-1(11),2(7),3,5,12,14-hexaene-13-carbonitrile]
< 100 nM	CCN1C(=O)N(c2c(F)cc(NCCNCC3CCC(=O)N3)cc2F)c2cc(C#N)ccc2-c2cc(Cl)cnc21 (stereo not shown) [1-176, 4-chloro-10-{2,6-difluoro-4-[(2-{[(5-oxopyrrolidin-2-yl)methyl]amino}ethyl)amino]phenyl}-8-ethyl-9-oxo-6,8,10-triazatricyclo[9.4.0.0^2,7]pentadeca-1(15),2(7),3,5,11,13-hexaene-13-carbonitrile]
< 100 nM	CNCCNc1cc(F)c(N2C(=O)N(CCOC)c3ncc(F)cc3-c3ccc(C#N)cc32)c(F)c1 [1-122, 10-(2,6-difluoro-4-{[2-(methylamino)ethyl]amino}phenyl)-4-fluoro-8-(2-methoxyethyl)-9-oxo-6,8,10-triazatricyclo[9.4.0.0^2,7]pentadeca-1(11),2(7),3,5,12,14-hexaene-13-carbonitrile]
< 100 nM	CCN1C(=O)N(c2c(F)cc(NCCNCCC(N)=O)cc2F)c2cc(C#N)ccc2-c2cc(Cl)cnc21 [1-161, 3-({2-[(4-{4-chloro-13-cyano-8-ethyl-9-oxo-6,8,10-triazatricyclo[9.4.0.0^2,7]pentadeca-1(11),2(7),3,5,12,14-hexaen-10-yl}-3,5-difluorophenyl)amino]ethyl}amino)propanamide]
< 100 nM	CCN1C(=O)N(c2c(F)cc(NCCNC)cc2F)c2cc(Cl)cc(F)c2-c2cc(F)cnc21 [1-94, 13-chloro-10-(2,6-difluoro-4-{[2-(methylamino)ethyl]amino}phenyl)-8-ethyl-4,15-difluoro-6,8,10-triazatricyclo[9.4.0.0^2,7]pentadeca-1(11),2(7),3,5,12,14-hexaen-9-one]
< 100 nM	CCCN1C(=O)N(c2c(F)cc(NCCNCCO)cc2F)c2cc(C#N)cc(F)c2-c2cc(F)cnc21 [1-125, 10-[2,6-difluoro-4-({2-[(2-hydroxyethyl)amino]ethyl}amino)phenyl]-4,15-difluoro-9-oxo-8-propyl-6,8,10-triazatricyclo[9.4.0.0^2,7]pentadeca-1(11),2(7),3,5,12,14-hexaene-13-carbonitrile]
